The source of these data is article PMC12432435, “Not only an inhibitor: Trehalose enhances the catalytic action exerted on oxaloacetate by rabbit lactate dehydrogenase” (Protein Science : A Publication of the Protein Society, 2025).

Assay [1] deals with T1, rabbit muscle lactate dehydrogenase (rbLDH, LDH-A) (Oryctolagus cuniculus, UniProt P13491).
T1 construct: gene LDHA; tetrameric enzyme from rabbit skeletal muscle
As to the kind of experiment: stopped-flow tryptophan fluorescence quenching of the rbLDH•β-NADH complex. In kind it is binding.

Assay [2] concerns the target T1, rabbit muscle lactate dehydrogenase (rbLDH, LDH-A). The assay is described as follows: stopped-flow tryptophan fluorescence quenching (FRET), association and dissociation kinetics. In kind it is binding. Conditions: read-out: stopped-flow tryptophan fluorescence quenching (FRET), association and dissociat.

Consider `NC(=O)C(=O)O` [oxamate], for which the “Control / k obs” value in assay [1] came to 642 ± 19 s⁻¹.
With `NC(=O)C1=CN([C@@H]2O[C@H](COP(=O)(O)OP(=O)(O)OC[C@H]3O[C@@H](n4cnc5c(N)ncnc54)[C@H](O)[C@@H]3O)[C@@H](O)[C@H]2O)C=CC1` [β-NADH], the kon in assay [2] stood at 1.17e+08 M⁻¹ s⁻¹.
